Results: patent US10781185B2, “Heterocyclic compounds for the inhibition of PASK” (BioEnergenix LLC, priority 2009, dated 2020)

What follows are compounds tested against PASK (Homo sapiens (Human), UniProt Q96RG2) (assay: PAS Kinase FRET Assay). Details: TR-FRET, Ulight-peptide substrate; read-out: IC50 Kinase Domain.
Chain of PASK (Q96RG2 999-1251): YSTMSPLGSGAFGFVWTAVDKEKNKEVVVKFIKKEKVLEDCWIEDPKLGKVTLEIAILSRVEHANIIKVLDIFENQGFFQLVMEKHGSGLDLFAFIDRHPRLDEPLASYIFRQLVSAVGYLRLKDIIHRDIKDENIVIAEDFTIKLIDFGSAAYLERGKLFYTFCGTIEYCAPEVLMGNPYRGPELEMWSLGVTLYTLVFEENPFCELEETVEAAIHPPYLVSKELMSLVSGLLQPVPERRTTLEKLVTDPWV
Format: biochemical
Text: PAS Kinase FRET Assay The aim of the FRET assay is to determine the inhibition potential of test compounds on targeted kinase. This assay platform provides a homogenous screening method for measuring kinase activity by quantitating the amount of phospho-substrate in solution following a kinase reaction. In the presence of kinase and ATP, the Ulight-peptide is phosphorylated and captured by an anti-phospho-substrate antibody, which brings the Eu chelate donor and Ulight acceptor dyes into close proximity. […] The contents of the plate were and incubated at RT for 1 h. The reaction was stopped by adding 5 μl of stop solution to each test well followed by mixing and incubation at RT for 10 minutes. 5 μl of detection mix (detection antibody diluted in detection buffer) was added; the contents of the plate were mixed and then incubated in the dark for 1 hour at RT. […] The results were graphed to calculate the EC50. Titration of ATP at the EC50 concentration of kinase to determine ATP Km,app. was performed using the following method. […] The contents of the plate were and incubated at RT for 1 h. The reaction was stopped by adding 5 μl of stop solution to each test well followed by mixing and incubation at RT for 10 minutes. 5 μl of detection mix (detection antibody diluted in detection buffer) was added; the contents of the plate were mixed and then incubated in the dark for 1 hour at RT. […] The results were graphed to calculate the EC50 as the ATP Km,app. […] If compound is not soluble under this condition, it was diluted to 3 mM. Kinase reaction buffer was prepared containing 10 mM MgCl2, 50 mM HEPES, 1 mM EGTA, 0.01% TWEEN-20, 2 mM DTT. […] As a positive control, 2.5 μl of positive compound was added to assay wells, and 2.5 μl of DMSO to assay wells as vehicle control. Kinase solution was prepared in reaction buffer at 2× final assay concentration. Kinase solution (5 μl) was added to each well of the assay plate. The substrate and ATP solution was prepared in kinase reaction buffer at 4× final assay concentration. The kinase reaction was started by adding 2.5 μl of substrate+ATP mix solution to each well of the assay plate. The plate is mixed on a plate shaker; then covered and allowed to react for 2 hours in the dark at 25° C. without shaking. The reaction was stopped by adding 5 μl of stop solution to each test well followed by mixing and incubation at RT for 10 minutes in the dark. 5 μl of detection mix (detection antibody diluted in detection buffer) was added; the contents of the plate were mixed and then incubated in the dark for 1 hour at RT.
CS(=O)(=O)N1CCN(c2nc3cc(C(=O)O)ccc3nc2-c2ccccc2)CC1 [Example 33, 3-(4-(Methylsulfonyl)piperazin-1-yl)-2-phenylquinoxaline-6-carboxylic acid] was tested, and the IC50 was ≤ 10 µM. For CC(=O)N(C)C1CCN(c2nc3cc(C(=O)O)ccc3nc2-c2ccccc2)CC1 [Example 34, 3-(4-(N-Methylacetamido)piperidin-1-yl)-2-phenylquinoxaline-6-carboxylic acid], the IC50 was ≤ 10 µM. With CN(c1ccccc1)C1CCN(c2nc3cc(C(=O)O)ccc3nc2-c2ccccc2)CC1 [Example 35, 3-(4-(Methyl(phenyl)amino)piperidin-1-yl)-2-phenylquinoxaline-6-carboxylic acid] the IC50 was ≤ 10 µM. For CCN(CC)c1nc2cc(C(=O)O)ccc2nc1-c1ccccc1 [Example 36, 3-(Diethylamino)-2-phenylquinoxaline-6-carboxylic acid], the IC50 was ≤ 10 µM. With CC(=O)NC1CCN(c2nc3cc(C(=O)O)ccc3nc2-c2ccccc2)CC1 [Example 37, 3-(4-Acetamidopiperidin-1-yl)-2-phenylquinoxaline-6-carboxylic acid] the IC50 was ≤ 10 µM. In the case of O=C(O)c1ccc2nc(-c3ccccc3)c(N3CCc4ccccc4C3)nc2c1 [Example 39, 3-(3,4-Dihydroisoquinolin-2(1H)-yl)-2-phenylquinoxaline-6-carboxylic acid], the IC50 is reported as ≤ 10 µM. O=C(O)c1ccc2nc(-c3ccccc3)c(NCCc3ccccc3)nc2c1 [Example 41, 3-(Phenethylamino)-2-phenylquinoxaline-6-carboxylic acid] was tested, and the IC50 was ≤ 10 µM. In the case of CN(CCc1ccccc1)c1nc2cc(C(=O)O)ccc2nc1-c1ccccc1 [Example 42, 3-(Methyl(phenethyl)amino)-2-phenylquinoxaline-6-carboxylic acid], the IC50 is reported as ≤ 10 µM. With O=C(O)c1ccc2nc(-c3ccccc3)c(NC3CCCCC3)nc2c1 [Example 44, 3-(Cyclohexylamino)-2-phenylquinoxaline-6-carboxylic acid] the IC50 was ≤ 10 µM. With CCC(C)N(C)c1nc2cc(C(=O)O)ccc2nc1-c1ccccc1 (stereo not shown) [Example 48, 3-(sec-Butyl(methyl)amino)-2-phenylquinoxaline-6-carboxylic acid] the IC50 was ≤ 10 µM. For O=C(O)c1ccc2nc(-c3ccccc3)c(N3CC[C@@H](O)C3)nc2c1 [Example 49, (R)-3-(3-Hydroxypyrrolidin-1-yl)-2-phenylquinoxaline-6-carboxylic acid], the IC50 was ≤ 10 µM. In the case of O=C(O)c1ccc2nc(-c3ccccc3)c(N3CC[C@H](O)C3)nc2c1 [Example 50, (S)-3-(3-Hydroxypyrrolidin-1-yl)-2-phenylquinoxaline-6-carboxylic acid], the IC50 is reported as ≤ 10 µM. With O=C(O)c1ccc2nc(-c3ccccc3)c(N3CCC[C@H]3CO)nc2c1 [Example 53, (S)-3-(2-(Hydroxymethyl)pyrrolidin-1-yl)-2-phenylquinoxaline-6-carboxylic acid] the IC50 was ≤ 10 µM. In the case of C[C@H](c1ccccc1)N(C)c1nc2cc(C(=O)O)ccc2nc1-c1ccccc1 [Example 59, (R)-3-(Methyl(1-phenylethyl)amino)-2-phenylquinoxaline-6-carboxylic acid], the IC50 is reported as ≤ 10 µM. For C[C@@H](c1ccccc1)N(C)c1nc2cc(C(=O)O)ccc2nc1-c1ccccc1 [Example 60, (S)-3-(Methyl(1-phenylethyl)amino)-2-phenylquinoxaline-6-carboxylic acid], the IC50 was ≤ 10 µM. With CC[C@@H](C)N(C)c1nc2cc(C(=O)O)ccc2nc1-c1ccccc1 [Example 61, (R)-3-(sec-Butyl(methyl)amino)-2-phenylquinoxaline-6-carboxylic acid] the IC50 was ≤ 10 µM. O=C(O)c1ccc2nc(-c3ccccc3)c(-n3ccc4ccccc43)nc2c1 [Example 62, 3-(1H-Indol-1-yl)-2-phenylquinoxaline-6-carboxylic acid] was tested, and the IC50 was ≤ 10 µM. In the case of O=C(O)c1ccc2nc(-c3ccccc3)c(N3CCc4ccccc43)nc2c1 [Example 67, 3-(Indolin-1-yl)-2-phenylquinoxaline-6-carboxylic acid], the IC50 is reported as ≤ 10 µM. With O=C(O)c1ccc2nc(-c3ccccc3)c(N3CCOc4ccccc43)nc2c1 [Example 68, 3-(2,3-Dihydrobenzo[b][1,4]oxazin-4-yl)-2-phenylquinoxaline-6-carboxylic acid] the IC50 was ≤ 10 µM. COc1cccc(-c2nc3ccc(C(=O)O)cc3nc2N(C)C(C)C)c1 [Example 69, 3-(Isopropyl(methyl)amino)-2-(3-methoxyphenyl)quinoxaline-6-carboxylic acid] was tested, and the IC50 was ≤ 10 µM. In the case of CC(C)N(C)c1nc2cc(C(=O)O)ccc2nc1-c1cccc(F)c1 [Example 70, 2-(3-Fluorophenyl)-3-(isopropyl(methyl)amino)quinoxaline-6-carboxylic acid], the IC50 is reported as ≤ 10 µM. In the case of CC(C)N(C)c1nc2cc(C(=O)O)ccc2nc1-c1ccccc1F [Example 71, 2-(2-Fluorophenyl)-3-(isopropyl(methyl)amino)quinoxaline-6-carboxylic acid], the IC50 is reported as ≤ 10 µM. CC(C)N(C)c1nc2cc(C(=O)O)ccc2nc1-c1ccc(S(C)(=O)=O)cc1 [Example 82, 3-(Isopropyl(methyl)amino)-2-(4-(methylsulfonyl)phenyl)quinoxaline-6-carboxylic acid] was tested, and the IC50 was ≥ 10 µM. For CC(C)N(C)c1nc2cc(C(=O)O)ccc2nc1-c1ccc(OC(F)(F)F)cc1 [Example 85, 3-(Isopropyl(methyl)amino)-2-(4-(trifluoromethoxy)phenyl)quinoxaline-6-carboxylic acid], the IC50 was ≤ 10 µM. For CC(C)N(C)c1nc2cc(C(=O)O)ccc2nc1-c1ccc(C#N)cc1 [Example 86, 2-(4-Cyanophenyl)-3-(isopropyl(methyl)amino)quinoxaline-6-carboxylic acid], the IC50 was ≤ 10 µM. In the case of C[C@H]1CN(c2ccccn2)CCN1c1nc2cc(C(=O)O)ccc2nc1-c1ccc(F)cc1 [Example 90, (S)-2-(4-Fluorophenyl)-3-(2-methyl-4-(pyridin-2-yl)piperazin-1-yl)quinoxaline-6-carboxylic acid], the IC50 is reported as ≤ 10 µM. C[C@H]1CCCCN1c1nc2cc(C(=O)O)ccc2nc1-c1ccc(F)cc1 [Example 91, (S)-2-(4-Fluorophenyl)-3-(2-methylpiperidin-1-yl)quinoxaline-6-carboxylic acid] was tested, and the IC50 was ≤ 10 µM. CN(c1nc2cc(C(=O)O)ccc2nc1-c1ccc(F)cc1)C1CC1 [Example 92, 3-(Cyclopropyl(methyl)amino)-2-(4-fluorophenyl)quinoxaline-6-carboxylic acid] was tested, and the IC50 was ≤ 10 µM. For COC[C@H]1CCCN1c1nc2cc(C(=O)O)ccc2nc1-c1ccc(F)cc1 [Example 93, (R)-2-(4-Fluorophenyl)-3-(2-(methoxymethyl)pyrrolidin-1-yl)quinoxaline-6-carboxylic acid], the IC50 was ≤ 10 µM. C[C@H]1CN(c2ccccn2)CCN1c1nc2cc(C(=O)O)ccc2nc1-c1ccccc1 [Example 94, (S)-3-(2-Methyl-4-(pyridin-2-yl)piperazin-1-yl)-2-phenylquinoxaline-6-carboxylic acid] was tested, and the IC50 was ≤ 10 µM. O=C(O)c1ccc2nc(-c3ccccc3)c(N3CCCC4CCCCC43)nc2c1 (stereo not shown) [Example 96, 3-(Octahydroquinolin-1(2H)-yl)-2-phenylquinoxaline-6-carboxylic acid] was tested, and the IC50 was ≤ 10 µM. In the case of CC(C)N(C)c1nc2cc(C(=O)O)ccc2nc1-c1cccnc1 [Example 97, 3-(Isopropyl(methyl)amino)-2-(pyridin-3-yl)quinoxaline-6-carboxylic acid], the IC50 is reported as ≤ 10 µM. With CC(C)N(C)c1nc2cc(C(=O)O)ccc2nc1-c1ccco1 [Example 98, 2-(Furan-2-yl)-3-(isopropyl(methyl)amino)quinoxaline-6-carboxylic acid] the IC50 was ≤ 10 µM. With CC(C)N(C)c1nc2cc(C(=O)O)ccc2nc1-c1cnc2ccccc2c1 [Example 99, 3-(Isopropyl(methyl)amino)-2-(quinolin-3-yl)quinoxaline-6-carboxylic acid] the IC50 was ≤ 10 µM. With CC(C)N(C)c1nc2cc(C(=O)O)ccc2nc1-c1ccc(N2CCOCC2)cc1 [Example 100, 3-(Isopropyl(methyl)amino)-2-(4-morpholinophenyl)quinoxaline-6-carboxylic acid] the IC50 was ≤ 10 µM. O=C(O)c1ccc2nc(-c3ccc(F)cc3)c(N3CCS(=O)(=O)CC3)nc2c1 [Example 101, 3-(1,1-Dioxidothiomorpholino)-2-(4-fluorophenyl)quinoxaline-6-carboxylic acid] was tested, and the IC50 was ≥ 10 µM. For O=C(O)c1ccc2nc(-c3ccccc3)c(N3CCS(=O)(=O)CC3)nc2c1 [Example 102, 3-(1,1-Dioxidothiomorpholino)-2-phenylquinoxaline-6-carboxylic acid], the IC50 was ≥ 10 µM.
